In patent publication US6608061B2, “Bisaryl compound and medicament for cancer treatment comprising the same” (Kyoma Hakko Kogyo Co., Ltd., priority 1997, dated 2003):

What was measured:
[1] = target: T1, human RNR (purified R1 and R2 subunits) (Homo sapiens, UniProt P23921+P31350); assay: In vitro measurement of human RNR inhibitory activity (conversion of CDP to dCDP, HPLC); format: biochemical; details: 100 μM CDP, 37° C., 30 minutes, read-out: RNR Inhibition (IC50)
T1 construct: made in house; host or cells: Escherichia coli BL21(λDE3)pLysS, plasmids pETR1 and pETR2 (pET3a backbone)
T1 sequence (P23921 1-792): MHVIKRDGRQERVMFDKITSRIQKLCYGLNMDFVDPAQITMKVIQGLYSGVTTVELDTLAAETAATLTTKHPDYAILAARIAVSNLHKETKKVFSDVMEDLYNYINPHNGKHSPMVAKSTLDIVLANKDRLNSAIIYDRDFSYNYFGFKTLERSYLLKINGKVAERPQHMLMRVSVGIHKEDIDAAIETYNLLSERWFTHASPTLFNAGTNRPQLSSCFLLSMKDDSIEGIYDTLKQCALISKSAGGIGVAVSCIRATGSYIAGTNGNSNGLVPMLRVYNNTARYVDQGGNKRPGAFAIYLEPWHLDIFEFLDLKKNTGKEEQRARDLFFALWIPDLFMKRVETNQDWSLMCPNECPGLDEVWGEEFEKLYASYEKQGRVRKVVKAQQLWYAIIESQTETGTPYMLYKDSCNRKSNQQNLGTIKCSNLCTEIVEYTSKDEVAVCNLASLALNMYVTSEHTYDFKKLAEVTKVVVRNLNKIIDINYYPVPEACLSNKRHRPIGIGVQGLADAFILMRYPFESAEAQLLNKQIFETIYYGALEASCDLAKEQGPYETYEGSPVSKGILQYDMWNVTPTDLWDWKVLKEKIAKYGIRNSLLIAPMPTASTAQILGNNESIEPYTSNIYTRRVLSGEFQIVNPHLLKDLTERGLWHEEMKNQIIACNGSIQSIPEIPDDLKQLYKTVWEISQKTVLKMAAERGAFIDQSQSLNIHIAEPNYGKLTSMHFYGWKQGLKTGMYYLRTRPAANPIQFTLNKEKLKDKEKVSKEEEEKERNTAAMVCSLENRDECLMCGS
T1 sequence (P31350 1-389): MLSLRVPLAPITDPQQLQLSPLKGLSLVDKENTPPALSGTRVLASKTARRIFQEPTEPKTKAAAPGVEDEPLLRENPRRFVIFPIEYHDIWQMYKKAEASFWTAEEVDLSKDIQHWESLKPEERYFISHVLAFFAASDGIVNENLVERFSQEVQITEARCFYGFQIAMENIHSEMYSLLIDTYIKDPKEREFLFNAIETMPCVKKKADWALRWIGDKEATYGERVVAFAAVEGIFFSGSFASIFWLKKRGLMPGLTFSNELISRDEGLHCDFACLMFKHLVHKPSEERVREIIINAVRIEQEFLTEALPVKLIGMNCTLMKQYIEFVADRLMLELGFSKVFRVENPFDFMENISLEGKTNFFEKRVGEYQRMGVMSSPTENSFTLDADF

[2] = tested on: HeLa S3 cells; assay: Test for growth inhibition of HeLa S3 cells; format: cell-based; details: Homo sapiens, HeLa S3, 72 h, HeLa S3 cells, 72 hours with test compound, Cell Proliferation Kit II; read-out: Cell growth inhibition (IC50)
Method: Test for Growth Inhibition of Hela S3 Cells
HeLa S3 cells prepared at 1×10^4 cells/ml in MEM culture medium containing 10% fetal bovine serum and 2 mM glutamine were added to each well of a 96-well microtiter plate (0.1 ml for each well). The cells were cultured at 37° C. in a CO2 incubator for 24 hours, and then 0.05 ml of test compound appropriately diluted with the above medium was added to each well, and then the mixture was cultured at 37° C. in a CO2 incubator for 72 hours. After the culture supernatant was removed, each well was washed with 0.1 ml of PBS buffer twice, and 0.1 ml of the aforementioned medium was added to each well again.
Cell Proliferation Kit II (Boehringer Mennheim) was used for measurement of cell number in each well. After a coloring reaction reagent was added, the plate was warmed to 37° C. in a CO2 incubator for 3 hours. Then, absorbances at 490 nm and 655 nm were measured by a microplate reader, and a value (difference of absorbance) was calculated for each well by subtracting the absorbance at […] from the absorbance at 490 nm. By comparing the differences of absorbance for cells without treatment and cells treated with a test compound at a known concentration, a concentration of test compound which inhibited the cell growth by 50% was calculated, and the value obtained was determined as IC50. The values of RNR inhibitory activity obtained in Example 8, and the values of cell growth inhibitory activity obtained in Example 9 are shown in the following tables (the compound numbers used in the tables correspond to the compound numbers shown in the aforementioned tables).

[3] = tested on: human ovary cancer A2780 cells; assay: Antineoplastic effect against human ovary cancer A2780 cells transplanted to nude mice; format: in vivo, nude mice BALB/cAJcl-nu; details: Mus musculus, ip, A2780 s.c. in nude mice, read-out: Antitumor activity T/C; for response vs control in vivo at 500 mg/kg/day: 168 h, 500 mg/kg/day intraperitoneally once a day for 5 days, evaluation day 7
Source text: Antineoplastic Effect Against Human Ovary Cancer A2780 Cells
2 mm cubes (tumor fragments of 8 mm^3) of human ovary cancer A2780 cells were subcutaneously transplanted to nude mice BALB/cAJcl-nu (CLEA JAPAN) in the abdomens. When the tumor volume reached to from 50 to 300 mm^3 after the transplantation, the mice were arbitrarily divided into groups each consisting of 5 mice, and intraperitoneally administered with a drug solution once a day for 5 days. After weighing compounds, the drug solution was prepared before use by dissolving the drug in 99.5% ethanol (final concentration: 5%, analytical grade, Kanto Kagaku) or N,N-dimethylacetamide (final concentration: 5%, analytical grade, Kanto Kagaku), adding CREMOPHOR EL (a derivative of caster oil and ethylene oxide, final concentration: 10%, Sigma Chemical) to the solution, and suspending the solution in physiological saline (Otsuka Physiological Saline for Injection, Otsuka Pharmaceutical). For evaluation of the effect, a tumor volume was calculated in accordance with Equation 1, a ratio of tumor volume (V) after the administration of drug solution to tumor volume (V0) before the administration of drug solution was calculation (V/V0), and the ratio was compared with that for the untreated group to determine T/C (Equation 2). In the table, administration dose, T/C and evaluation day are shown. [formula]

| IC50 [1] | IC50 [2] | SMILES | response vs control in vivo at 500 mg/kg/day [3] | response vs control in vivo at 250 mg/kg/day ([3]; 96 h, 250 mg/kg/day intraperitoneally once a day for 5 days, evaluation day 4) |
| --- | --- | --- | --- | --- |
| 1.73 µM | 5.16 µM | Oc1ccc(SCCN(O)CCSc2ccc(O)cc2)cc1 [Compound 48] | 54% |  |
| 2.27 µM | 5.45 µM | Oc1ccc(SCC(O)CSc2ccc(O)cc2)cc1 [Compound 156] |  |  |
| 1.42 µM | 12.7 µM | Oc1ccc(SCSCSc2ccc(O)cc2)cc1 [Compound 158] |  |  |
| 0.69 µM | 6.89 µM | Oc1ccc(SCC=CCSc2ccc(O)cc2)cc1 [Compound 159] |  |  |
| 0.95 µM | 20.1 µM | Oc1ccc(SCC#CCSc2ccc(O)cc2)cc1 [Compound 160] |  |  |
| 1.13 µM | 34.2 µM | Oc1ccc(SCc2ccccc2CSc2ccc(O)cc2)cc1 [Compound 161] |  |  |
| 1.7 µM | 3.7 µM | Oc1ccc(SCCOCOCCSc2ccc(O)cc2)cc1 [Compound 162] |  |  |
| 2.1 µM | 5.17 µM | Oc1ccc(SCCOCCOCCSc2ccc(O)cc2)cc1 [Compound 163] |  |  |
| 3.09 µM | 31.2 µM | Oc1ccc(SCC(O)COCCOCC(O)CSc2ccc(O)cc2)cc1 (centres unmarked) [Compound 166] |  |  |
| 8.01 µM | 30 µM | Oc1ccc(SCCOCCOCCOCCSc2ccc(O)cc2)cc1 [Compound 171] |  |  |
| 2.64 µM | 19.5 µM | Oc1ccc(SCCOCCOCCOCCOCCSc2ccc(O)cc2)cc1 [Compound 172] |  |  |
| 3.63 µM | 12.9 µM | Oc1ccc(SCCOCCOCCOCCOCCOCCSc2ccc(O)cc2)cc1 [Compound 173] |  |  |
| 0.42 µM | 10.4 µM | CC1(C)OC(CSc2ccc(O)cc2)C(CSc2ccc(O)cc2)O1 (centres unmarked) [Compound 183] |  |  |
| 0.3 µM | 2.46 µM | Oc1ccc(SCCC(O)CSc2ccc(O)cc2)cc1 (centres unmarked) [Compound 184] |  |  |
| 11.9 µM | 56 µM | O=C(CSc1ccc(O)cc1)C(=O)CSc1ccc(O)cc1 [Compound 186] |  |  |
| 1.36 µM | 4.78 µM | O=C(NCCCSc1ccc(O)cc1)C1C2C=CC(C2)C1C(=O)NCCCSc1ccc(O)cc1 (centres unmarked) [Compound 191] |  |  |
| 2.85 µM | 4.51 µM | O=C(NCCCSc1ccc(O)cc1)C1(C(=O)NCCCSc2ccc(O)cc2)CCCC1 [Compound 192] |  |  |
|  | 0.36 µM | CC(=O)Oc1ccc(SCCN(CCSc2ccc(OC(C)=O)cc2)CC(N)=O)cc1 [Compound 193] |  | 46% |
| 0.84 µM | 11.7 µM | Oc1ccc(SCCN(CCSc2ccc(O)cc2)CCC2OCCCO2)cc1 [Compound 194] |  |  |
| 0.55 µM | 3.16 µM | CS(=O)(=O)NCCN(CCSc1ccc(O)cc1)CCSc1ccc(O)cc1 [Compound 195] |  |  |
| 1.52 µM | 7.08 µM | Oc1ccc(SCCN(CCSc2ccc(O)cc2)Cc2c[nH]cn2)cc1 [Compound 196] |  |  |
| 3.24 µM | 4.06 µM | COCCOCCOCCN(CCSc1ccc(O)cc1)CCSc1ccc(O)cc1 [Compound 197] |  |  |

| IC50 [1] | IC50 [2] | SMILES | response vs control in vivo at 500 mg/kg/day [3] | response vs control in vivo at 250 mg/kg/day ([3]; 96 h, 250 mg/kg/day intraperitoneally once a day for 5 days, evaluation day 4) |
| --- | --- | --- | --- | --- |
| 4.86 µM | 4.85 µM | COCCOCCN(CCSc1ccc(O)cc1)CCSc1ccc(O)cc1 [Compound 198] |  |  |
| 3.99 µM | 5.14 µM | OCCOCCN(CCSc1ccc(O)cc1)CCSc1ccc(O)cc1 [Compound 199] |  |  |
| 4.2 µM | 4.13 µM | CC1(C)OCC(CN(CCSc2ccc(O)cc2)CCSc2ccc(O)cc2)O1 (centres unmarked) [Compound 200] |  |  |
| 2.49 µM | 4.29 µM | OCC(O)CN(CCSc1ccc(O)cc1)CCSc1ccc(O)cc1 (centres unmarked) [Compound 201] |  |  |
| 1.87 µM | 42.6 µM | N=C(N)NCCN(CCSc1ccc(O)cc1)CCSc1ccc(O)cc1 [Compound 202] |  |  |
| 3.18 µM | 3.45 µM | O=C(CN(CCSc1ccc(O)cc1)CCSc1ccc(O)cc1)N1CCCCC1 [Compound 203] |  |  |
| 1.5 µM | 3.38 µM | N#CCCN(CCC#N)C(=O)CN(CCSc1ccc(O)cc1)CCSc1ccc(O)cc1 [Compound 204] |  |  |
| 1.19 µM | 7.32 µM | O=C(CN(CCSc1ccc(O)cc1)CCSc1ccc(O)cc1)NC(CO)CO [Compound 205] |  |  |
| 1.13 µM | 3.31 µM | O=C(CN(CCSc1ccc(O)cc1)CCSc1ccc(O)cc1)N1CCC[C@H]1CO [Compound 206] |  |  |
| 0.87 µM | 1.71 µM | O=C(CN(CCSc1ccc(O)cc1)CCSc1ccc(O)cc1)NCCO [Compound 207] |  |  |
| 3.46 µM | 5.93 µM | O=C(CN(CCSc1ccc(O)cc1)CCSc1ccc(O)cc1)N(CCO)CCO [Compound 208] |  |  |
| 5.91 µM | 2.82 µM | O=C(CN(CCSc1ccc(O)cc1)CCSc1ccc(O)cc1)Nc1nccs1 [Compound 210] |  |  |
| 2.06 µM | 180 µM | CC[N+](CC)(CC)CCCN(CCSc1ccc(O)cc1)CCSc1ccc(O)cc1 [Compound 213] |  |  |
| 2.69 µM | 7.73 µM | OC[C@H]1OC(N(CCSc2ccc(O)cc2)CCSc2ccc(O)cc2)[C@@H](O)[C@@H](O)[C@@H]1O (some centres unmarked) [Compound 214] |  |  |
| 3.68 µM | 12.7 µM | OC[C@H]1OC(N(CCSc2ccc(O)cc2)CCSc2ccc(O)cc2)[C@H](O)[C@@H](O)[C@@H]1O (some centres unmarked) [Compound 215] |  |  |
| 3.63 µM | 11.5 µM | OC[C@@H]1OC(N(CCSc2ccc(O)cc2)CCSc2ccc(O)cc2)[C@@H](O)[C@H](O)[C@H]1O (some centres unmarked) [Compound 216] |  |  |
| 4.97 µM | 23.2 µM | OC[C@@H]1OC(N(CCSc2ccc(O)cc2)CCSc2ccc(O)cc2)[C@H](O)[C@H](O)[C@H]1O (some centres unmarked) [Compound 218] |  |  |
| 3.51 µM | 25.2 µM | NC(=O)[C@H]1OC(N(CCSc2ccc(O)cc2)CCSc2ccc(O)cc2)[C@H](O)[C@@H](O)[C@@H]1O (some centres unmarked) [Compound 219] |  |  |
| 5.2 µM | 0.29 µM | COCC(=O)Oc1ccc(SCCN(CCSc2ccc(OC(=O)COC)cc2)CC(N)=O)cc1 [Compound 220] |  |  |
| 0.43 µM | 0.36 µM | CNCC(=O)Oc1ccc(SCCN(CCSc2ccc(OC(=O)CNC)cc2)CC(N)=O)cc1 [Compound 222] |  |  |
|  |  | CC(C)(CSc1ccc(O)cc1)C(=O)N1CCN(C(=O)C(C)(C)CSc2ccc(O)cc2)CC1 [Compound 227] | 53% |  |
